Experimental findings from article PMC7390679 (Bioorganic chemistry, 2020) are described below.

The subject of one data set is EV-A71 Tainan/4643/98. As to the kind of experiment: CPE antiviral assay, EV-A71 Tainan/4643/98 in RD cells. It counts as cell-based. The note with it: read-out: EC50 against EV-A71 Tainan.
Another data set has as its system CVB3. As to the kind of experiment: CPE antiviral assay, CVB3 in Vero C1008 cells. It is filed as cell-based.
For a further data set, the system named is Vero C1008 cells. The data set can be described thus: Cytotoxicity in Vero C1008 cells, neutral red method. It counts as cell-based. The note with it: read-out: CC50 in Vero C1008 cells.
The target in the next data set is CVB3 2C protein (Coxsackievirus B3, UniProt P03313). As to the kind of experiment: Differential scanning fluorimetry. It is filed as binding. The note with it: 1 mM compound, 4.5 μM 2C, DSF. A general note: In DSF a fluorescence change marks the thermal transition of the protein.
Sequence of CVB3 2C protein (P03313 1101-1429): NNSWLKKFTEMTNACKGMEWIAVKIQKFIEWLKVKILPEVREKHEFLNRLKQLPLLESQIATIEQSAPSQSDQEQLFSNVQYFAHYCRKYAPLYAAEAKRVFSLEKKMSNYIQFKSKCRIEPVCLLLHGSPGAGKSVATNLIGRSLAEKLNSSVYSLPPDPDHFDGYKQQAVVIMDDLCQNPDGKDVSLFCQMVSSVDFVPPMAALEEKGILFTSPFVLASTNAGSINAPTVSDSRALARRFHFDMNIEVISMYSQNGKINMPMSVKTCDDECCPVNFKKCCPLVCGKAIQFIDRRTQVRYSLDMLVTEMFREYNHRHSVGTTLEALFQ
In another data set the test system is RD cells. The data set can be described thus: Cytotoxicity in RD cells, neutral red method. To be noted: read-out: CC50 in RD cells, mean ± SD of three repeats.
Setting [1] is: Enterovirus B, CVB3, Vero C1008, read-out: EC50 against CVB3.
The mark [2] stands for this setting: read-out: EC50 against CVB3, Vero C1008 cells, CPE assay.

Molecules are shown by their SMILES. Counter-ions that a name gives are not always drawn. Like-named read-outs stand apart in the source and are kept apart here.

What is called EC50 is the concentration needed to bring the measured effect to its halfway point. For `CCCCOc1cc(C(=O)NCCN(CC)CC)c2ccccc2n1` [dibucaine], the EC50 was > 10 µM with EV-A71 Tainan/4643/98 (Enterovirus A, EVA71, RD) and 1.3 µM in the data set on CVB3 (setting [1]).
For orientation: CC50 means the concentration at which the toxic effect on the cells reaches its halfway point. Take `CNCCC(Oc1ccc(C(F)(F)F)cc1)c1ccccc1` (stereo not drawn) [fluoxetine]: in the data set on Vero C1008 cells, the CC50 came to 11 µM.
For `COc1ccc(CC(C)NCC(O)c2ccc(O)c(NC=O)c2)cc1` (stereo not drawn) [formoterol], the EC50 in the data set with EV-A71 Tainan/4643/98 (Enterovirus A, EVA71, RD) was > 100 µM; in the data set on CVB3 (setting [1]) it was 9.9 µM. The CC50 in the data set with Vero C1008 cells was > 300 µM.
Consider `N=C(N)N` [guanidine], for which the EC50 in the data set on EV-A71 Tainan/4643/98 (RD cells, CPE assay) amounted to 902 µM; with CVB3 (setting [2]), 224 µM. In addition, the CC50 is > 3000 µM in the data set with Vero C1008 cells and > 1000 µM in the data set with RD cells. On CVB3 2C protein, the “Tm shift of CVB3 2C protein” value worked out at 1.77 °C.
On to `Cc1ccc2c(c1)c1c3n2CCNC3CCC1` (stereo not drawn) [pirlindole mesylate], for which the EC50 with EV-A71 Tainan/4643/98 (RD cells, CPE assay) is > 20 µM; in the data set with CVB3 (setting [2]), 3.6 µM. Further, the values for the CC50 in the data set with Vero C1008 cells and in the data set with RD cells were 40.5 µM and 19 µM, respectively.
